System: patients with recurrent malignant glioma classified as WHO grade III or IV
Test: Phase 1 dose-escalation clinical trial: safety (TEAEs, DLTs, MTD);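 further: dosing continued until unacceptable toxicity, consent withdrawal, loss to follow-up or investigator/sponsor decision, with cohorts of 1-6 patients per dose level and MTD estimated by BLRM from cumulative DLT data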
[1] = 180 mg QD (N=6), cutoff April 21, 2024
[2] = 240 mg (N=5), cutoff April 21, 2023
[3] = 240 mg QD (N=6), cutoff April 21, 2024
[4] = 360 mg QD (N=6), cutoff April 21, 2024
[5] = 480 mg daily (240 mg BID) (N=6), cutoff April 21, 2024

Procedure: Administration to each subject was continued until unacceptable toxicity occurred, consent was withdrawn, the subject was lost to follow-up, or discontinuation was determined by the investigator and/or the sponsor.
The present study consists of two parts: a dose-escalation part (Part 1) and a dose-expansion part (Part 2).
Each dose level was evaluated in cohorts of 1-6 patients. In all cohorts, administration of the investigational drug to the second and subsequent patients was permitted after completion of all safety assessments on Day 8 of Cycle 1 in the first patient. […] At dose level 2 in the dose-escalation part, at least three patients were required to be evaluated before escalation to a higher dose level. After completion of each cohort, the probability of observing a DLT at each dose level in the present study was updated using the BLRM based on cumulative data from the preceding cohorts, and the MTD was estimated.

For `CC1(C)Oc2cc(Cl)ccc2[C@@H]2OCC3(CCN(CCn4ccnc4)CC3)C[C@H]21` [Compound 1, (4'aR,10'bR)-8'-chloro-1-[2-(1H-imidazol-1-yl)ethyl]-5',5'-dimethyl-4'a,10'b-dihydro-2'H,4'H,5'H-spiro[piperidine-4,3'-pyrano[3,2-c][1]benzopyran] diphosphate], the “TEAE: alopecia” value [1] was 1 (16.7) n (%), the “TEAE: constipation” value [1] was 2 (33.3) n (%) and the “TEAE: decreased appetite” value [1] was 1 (16.7) n (%). For the same compound, the “TEAE: decreased lymphocyte count” value [1] was 1 (16.7) n (%), the “TEAE: decreased neutrophil count” value [1] was 0 n (%) and the “TEAE: decreased platelet count” value [1] was 1 (16.7) n (%). For the same compound, the “TEAE: diarrhea” value [1] was 1 (16.7) n (%), the “TEAE: dry skin” value [1] was 1 (16.7) n (%) and the “TEAE: fall” value [1] was 2 (33.3) n (%). The “TEAE: fatigue” value [1] was 0 n (%), the “TEAE: headache” value [1] was 0 n (%) and the “TEAE: hypertrigly-ceridaemia” value [1] was 1 (16.7) n (%). The “TEAE: hyponatremia” value [1] was 0 n (%), the “TEAE: increase in blood cholesterol” value [1] was 0 n (%) and the “TEAE: increased alanine aminotransferase” value [1] was 4 (66.7) n (%). For the same compound, the “TEAE: increased aspartate aminotransferase” value [1] was 2 (33.3) n (%), the “TEAE: maculopapular rash” value [1] was 0 n (%) and the “TEAE: nausea” value [1] was 2 (33.3) n (%). The “TEAE: seizure” value [1] was 2 (33.3) n (%), the “TEAE: vomiting” value [1] was 2 (33.3) n (%) and the “Number of patients with any TEAE” value [2] was 5 (100) n (%). For the same compound, the “TEAE: constipation” value [2] was 3 (60.0) n (%), the “TEAE: decreased appetite” value [2] was 1 (20.0) n (%) and the “TEAE: decreased lymphocyte count” value [2] was 2 (40.0) n (%). For the same compound, the “TEAE: decreased neutrophil count” value [2] was 0 n (%), the “TEAE: decreased platelet count” value [2] was 0 n (%) and the “TEAE: decreased white blood cell count” value [2] was 0 n (%). For the same compound, the “TEAE: dry skin” value [2] was 3 (60.0) n (%), the “TEAE: fall” value [2] was 0 n (%) and the “TEAE: headache” value [2] was 3 (60.0) n (%). The “TEAE: hypertrigly-ceridaemia” value [2] was 1 (20.0) n (%), the “TEAE: hyponatremia” value [2] was 0 n (%) and the “TEAE: increased alanine aminotransferase” value [2] was 4 (80.0) n (%). The “TEAE: increased aspartate aminotransferase” value [2] was 2 (40.0) n (%), the “TEAE: nausea” value [2] was 3 (60.0) n (%) and the “TEAE: seizure” value [2] was 1 (20.0) n (%). The “TEAE: vomiting” value [2] was 2 (40.0) n (%), the “maximum tolerated dose (MTD)” value (240 mg BID, dose as the present compound) was 480 mg daily and the “Number of Patients with Any TEAE” value [3] was 6 (100) n (%). The “TEAE: Confusional state” value [3] was 1 (16.7) n (%), the “TEAE: Gait disturbance” value [3] was 0 n (%) and the “TEAE: Gastrointestinal disorder” value [3] was 0 n (%). For the same compound, the “TEAE: Hiccups” value [3] was 0 n (%), the “TEAE: Tremor” value [3] was 0 n (%) and the “TEAE: alopecia” value [3] was 1 (16.7) n (%). The “TEAE: constipation” value [3] was 3 (50.0) n (%), the “TEAE: decreased appetite” value [3] was 2 (33.3) n (%) and the “TEAE: decreased lymphocyte count” value [3] was 2 (33.3) n (%). The “TEAE: decreased neutrophil count” value [3] was 0 n (%), the “TEAE: decreased platelet count” value [3] was 0 n (%) and the “TEAE: diarrhea” value [3] was 1 (16.7) n (%). The “TEAE: dry skin” value [3] was 4 (66.7) n (%), the “TEAE: fall” value [3] was 0 n (%) and the “TEAE: fatigue” value [3] was 1 (16.7) n (%). The “TEAE: headache” value [3] was 4 (66.7) n (%), the “TEAE: hypertrigly-ceridaemia” value [3] was 1 (16.7) n (%) and the “TEAE: hyponatremia” value [3] was 0 n (%). The “TEAE: increase in blood cholesterol” value [3] was 1 (16.7) n (%), the “TEAE: increased alanine aminotransferase” value [3] was 6 (100) n (%) and the “TEAE: increased aspartate aminotransferase” value [3] was 2 (33.3) n (%). For the same compound, the “TEAE: maculopapular rash” value [3] was 0 n (%), the “TEAE: nausea” value [3] was 4 (66.7) n (%) and the “TEAE: seizure” value [3] was 1 (16.7) n (%). The “TEAE: vomiting” value [3] was 2 (33.3) n (%), the “serious TEAE: neoplasm progression” value (240 mg QD group, cutoff April 21, 2024) was “one” and the “serious TEAE: neoplasm progression” value (240 mg group, cutoff April 21, 2023) was “one”. The “Number of Patients with Any TEAE” value [4] was 6 (100) n (%), the “TEAE: Confusional state” value [4] was 0 n (%) and the “TEAE: Gait disturbance” value [4] was 1 (16.7) n (%). The “TEAE: Gastrointestinal disorder” value [4] was 1 (16.7) n (%), the “TEAE: Hiccups” value [4] was 0 n (%) and the “TEAE: Tremor” value [4] was 2 (33.3) n (%). The “TEAE: alopecia” value [4] was 2 (33.3) n (%), the “TEAE: constipation” value [4] was 2 (33.3) n (%) and the “TEAE: decreased appetite” value [4] was 1 (16.7) n (%). For the same compound, the “TEAE: decreased lymphocyte count” value [4] was 0 n (%), the “TEAE: decreased neutrophil count” value [4] was 1 (16.7) n (%) and the “TEAE: decreased platelet count” value [4] was 1 (16.7) n (%). The “TEAE: diarrhea” value [4] was 2 (33.3) n (%), the “TEAE: dry skin” value [4] was 0 n (%) and the “TEAE: fall” value [4] was 2 (33.3) n (%). For the same compound, the “TEAE: fatigue” value [4] was 3 (50.0) n (%), the “TEAE: headache” value [4] was 1 (16.7) n (%) and the “TEAE: hypertrigly-ceridaemia” value [4] was 1 (16.7) n (%). For the same compound, the “TEAE: hyponatremia” value [4] was 1 (16.7) n (%), the “TEAE: increase in blood cholesterol” value [4] was 2 (33.3) n (%) and the “TEAE: increased alanine aminotransferase” value [4] was 4 (66.7) n (%). For the same compound, the “TEAE: increased aspartate aminotransferase” value [4] was 3 (50.0) n (%), the “TEAE: maculopapular rash” value [4] was 1 (16.7) n (%) and the “TEAE: nausea” value [4] was 6 (100) n (%). For the same compound, the “TEAE: seizure” value [4] was 0 n (%), the “TEAE: vomiting” value [4] was 4 (66.7) n (%) and the “DLT (Grade 3 maculopapular rash; recovered to Grade 1 with treatment interruption)” value (360 mg QD, cutoff April 21, 2024) was “one”. For the same compound, the “DLT: Grade 3 maculo-papular rash (recovered to grade 1 with dose interruption)” value (360 mg cohort, as of September 2023) was “one and One”, the “Number of Patients with Any TEAE” value [5] was 6 (100) n (%) and the “TEAE: Confusional state” value [5] was 2 (33.3) n (%). For the same compound, the “TEAE: Gait disturbance” value [5] was 2 (33.3) n (%), the “TEAE: Gastrointestinal disorder” value [5] was 1 (16.7) n (%) and the “TEAE: Hiccups” value [5] was 2 (33.3) n (%). The “TEAE: Tremor” value [5] was 0 n (%).

Source: EP4806435A1, “DIHYDROCHROMENE-DERIVATIVE-CONTAINING THERAPEUTIC AGENT FOR CANCER” (Sumitomo Pharma Co., Ltd., priority 2023, dated 2025)
